Test results taken from PubChem BioAssay (NCI).
Where “and” joins values, the source holds several entries; their conditions need not be identical. Equal values may be shown once.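 How tested: cells in 96-well plates exposed to compound for 48 hours at five concentrations. GI50 is the concentration that inhibits growth by half. TGI marks complete inhibition of growth.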

What was measured:
Assay in all cases: inhibition of tumour cell growth, NCI panel, 48 h
[1] = test system: MOLT-4 leukemia
[2] = test system: KM12 colon
[3] = test system: SF-295 CNS
[4] = test system: BT-549 breast
[5] = test system: SF-268 CNS
[6] = test system: A549 NSCLC
[7] = test system: UACC-257 melanoma
[8] = test system: SNB-19 CNS
[9] = test system: 786-0 renal
[10] = test system: NCI-H460 lung

Row | Structure (SMILES) | GI50 [1] | TGI [1] [µM] | GI50 [2] | TGI [2] [µM] | GI50 [3] | TGI [3] [µM] | GI50 [4] | TGI [4] | GI50 [5] | TGI [5] | GI50 [6] | TGI [6] [µM] | GI50 [7] | TGI [7] [µM] | GI50 [8] | TGI [8] [µM] | GI50 [9] | TGI [9] [µM] | GI50 [10] | TGI [10] [µM]
1 | O=C(Nc1cc(Cl)ccc1O)c1cccc(NC2=C(Cl)C(=O)N(Cc3ccccc3)C2=O)c1 | 3.24 µM | 15.8 | 21.4 µM | 52 | 20.5 µM | 47.6 | 26.7 µM | 80.5 µM | 18.5 µM | 38.2 µM | 36.9 µM | > 100 | 23.8 µM | 68.2 | 48.4 µM | > 100 | 22.7 µM | 50.9 | 18.6 µM | 40.9
2 | CN(C)CCNC(=O)c1cc([N+](=O)[O-])ccn1 | – | 49.3 | – | > 100 | – | 93.9 | – | > 100 µM | – | 70.7 µM | – | > 100 | – | 29.8 | – | > 100 | – | > 100 | – | > 100
3 | Cn1c2ccc([N+](=O)[O-])cc2c(=O)c2c(O)cc(O)cc21 | – | > 100 | – | > 100 | – | 33.8 | – | > 100 µM | – | 80.2 µM | – | > 100 | – | > 100 | – | > 100 | – | 47 | – | > 100
4 | CN1CCN(Cc2ccc(NC(=O)c3[nH]ncc3Nc3ncnc4c3CCC4)cc2)CC1 | 0.447 µM | 3 | 0.767 µM | 11.1 | 2.24 µM | 12 | 2.14 µM | 6.97 µM | 2.14 µM | 7.78 µM | 2.18 µM | 12.8 | 3.49 µM | 15.4 | 2.87 µM | 14.8 | 2.24 µM | 11 | 1.87 µM | 10.6
5 | N#CSCC1CC(O)(c2ccccc2)C(c2ccccc2)C(c2ccc(F)cc2)O1 (centres undefined) | 0.676 µM | 4.51 | 2.32 µM | 5.85 | 1.88 µM | 7.08 | 2.32 µM | 5.39 µM | 2.57 µM | 7.25 µM | 8.38 µM | 40.5 | 3.66 µM | 13.5 | 19 µM | > 70.3 | 3.05 µM | 9.08 | 4.53 µM | 18.1
6 | CN(/N=N/c1nc(OCc2ccccc2)c2[nH]cnc2n1)C(=O)N(C)/N=N/c1nc(OCc2ccccc2)c2[nH]cnc2n1 | 53.1 µM | > 100 | 84.2 µM | > 100 | 32.4 µM | > 100 | 36.6 µM | > 100 µM | 47.6 µM | > 100 µM | 56 µM | > 100 | 54.7 µM | > 100 | > 100 µM | > 100 | 59.7 µM | > 100 | 26.1 µM | > 100
7 | Cc1c(CN2CCC(Nc3ncnc4sc(CC(F)(F)F)cc34)CC2)ccc2c1cc(C#N)n2Cc1cn[nH]c1 | 1.91 µM and 1.98 µM | 9.55 | 5.36 µM and 3.22 µM | 22.2 | 2.72 µM and 3.06 µM | 14.9 | 2.72 µM and 3.16 µM | 17.5 µM and > 27.4 µM | 4.48 µM and 5.71 µM | 25.5 µM and > 36.5 µM | 8.31 µM and 10.1 µM | 23.3 | 1.37 µM and 5.31 µM | – | 6.75 µM and 6.03 µM | 28.9 | 4.92 µM and 4.44 µM | 21.9 | 2.19 µM and 2.8 µM | 7.31
8 | COc1ccc(C2=C(c3cn(C)c4ccccc34)C(=O)NC2=O)cc1OC | 8.84 µM | > 25 | 6.34 µM | > 25 | 10.4 µM | > 25 | 8.02 µM | > 25 µM | 8.85 µM | > 25 µM | 8.44 µM | > 25 | > 25 µM | > 25 | > 25 µM | > 25 | 8.28 µM | > 25 | 8.52 µM | > 25
9 | CCOc1cc2ncc(C#N)c(Nc3ccc(F)c(Cl)c3)c2cc1NC(=O)/C=C/CN(C)C | 0.716 µM | > 4.91 | 1.22 µM | 3.01 | 2.25 µM | > 10 | 0.665 µM | > 7.78 µM | 0.265 µM | > 6.99 µM | 0.324 µM | > 9.66 | 1.27 µM | > 6.03 | 1.61 µM | > 10 | 0.339 µM | 2 | 0.655 µM | 4.26
10 | COc1cc(-c2cn(-c3ccc(Cl)cc3)c(=O)[nH]2)cc(OC)c1OC | 0.0199 µM | 8.86 | > 100 µM | > 100 | > 100 µM | > 100 | > 100 µM | > 100 µM | > 100 µM | > 100 µM | > 100 µM | > 100 | > 100 µM | > 100 | > 100 µM | > 100 | > 100 µM | > 100 | > 100 µM | > 100
11 | Cc1cc(-c2nc3ccc(O)cc3s2)ccc1N | 27.1 µM | > 100 | 57.9 µM | > 100 | 31.5 µM | > 100 | 14.2 µM | 33.9 µM | 35.6 µM | > 100 µM | 34.5 µM | > 100 | > 100 µM | > 100 | 46 µM | > 100 | 29.2 µM | > 100 | 38.9 µM | > 100
12 | Cc1nn2c(/C=C3/C(=O)Nc4ccccc43)c(-c3ccc(Cl)cc3)nc2s1 | > 50 µM | > 50 | 16.5 µM | > 50 | 10.3 µM | 31.8 | 10.7 µM | > 50 µM | 19.9 µM | > 50 µM | 16.2 µM | > 50 | 37.3 µM | > 50 | 10.5 µM | 32.6 | 9.95 µM | 24.2 | 22.1 µM | > 50
13 | COc1cc2c(OC)c(c1)CCCC1=CC(=O)C=C(CCC2)C1=O | – | 15.7 | – | 59.6 | – | > 100 | – | 92.3 µM | – | > 100 µM | – | > 100 | – | > 100 | – | > 100 | – | > 55.1 | – | > 100
14 | Cc1cc(S(=O)(=O)NC#N)c(S/C(=N\Nc2ccc([N+](=O)[O-])cc2)c2ccccc2)cc1Cl | 4.43 µM | 81.2 | 16.6 µM | 30.2 | 15.9 µM | 34 | 15.7 µM | 36.7 µM | 19.2 µM | 43.7 µM | 18.7 µM | 40.8 | 35.9 µM | > 100 | 38 µM | > 100 | 33.8 µM | > 100 | 18.7 µM | 36.3
15 | Cn1c(=O)c2[nH]c(COCc3nc4c([nH]3)c(=O)n(C)c(=O)n4C)nc2n(C)c1=O | – | > 100 | – | > 100 | – | > 100 | – | > 100 µM | – | > 100 µM | – | > 100 | – | > 100 | – | > 100 | – | > 100 | – | > 100
